In patent publication US4056622A, “N-sulfonyl-N-dihalophenylimidazolidinediones” (Sumitomo Chemical Company, Limited, priority 1975, dated 1977):
≈ marks a conversion by molar mass, not a printed value. One block for each compound: values may come before it.

What was measured:
Alternaria bracissicola = test: Test for Alternaria bracissicola-controlling effect (chinese cabbage); format: in vivo; settings: 7 ml per pot
Experimental: An aqueous dilution of the test compound in the form of a wettable powder preparation was applied to chinese cabbage (variety: Nozaki No. 2), cultured in pots of 9 cm in diameter and almost grown up to the two leaved stage, at a rate of 7 ml per pot. After one day, a spore suspension of Alternaria bracissicola was sprayed on the surface of the leaf for inoculation. The pots were left in a dark, moist room for one day and then under illumination for 2 days. Then, the infectious state was examined. The degree of damage was determined in the following manner. The rate of infectious area on the leaf was measured and classified in one of the infectious indexes (0, 1, 2, 3, 4, 5) according to the undermentioned criteria. The number of leaves corresponding to each infectious index (n0, n1, n2, n3, n4, n5) was determined, and calculation was effected according to the undermentioned equation.

Sclerotinia sclerotiorum = test: Test for Sclerotinia sclerotiorum-controlling effect on cucumbers; format: in vivo; settings: cucumber; 100 ppm active ingredient, 7 ml per pot; 3 days after inoculation
Experimental: An aqueous dilution of the test compound in the form of a wettable powder preparation was applied to cucumbers, cultured in pots of 9 cm in diameter, when the first leaf was almost developed, at a rate of 7 ml per pot. After one day, Sclerotinia sclerotiorum was inoculated on the surface of the leaf, and the infectious state was examined three days thereafter. The degree of damage was determined in the following manner. The rate of infectious area on the leaf was measured and classified in one of the six infectious indexes (0, 1, 2, 3, 4, 5) according to the undermentioned criteria. The number of leaves corresponding to each infectious index (n0, n1, n2, n3, n4, n5) was determined, and calculation was effected according to the undermentioned equation.

Pellicularia sasakii = test: Test for Pellicularia sasakii-controlling effect on rice plants; format: in vivo; settings: dust, 1.4 % active ingredient, 3 kg per 10 a, 5 days after inoculation
Experimental: The test compound in the form of a dust preparation was applied to rice plants (variety: Wase-Asahi), cultured in porcelain Wagner pots (1/500 a) and grown up to a grass height of 50 to 60 cm, at a rate of 3 kg per 10 a by the use of a duster. After one day, a mycelial disc of Pellicularia sasakii was attached to the sheath of each stem for inoculation. Five days thereafter, the size of the diseased spot generated on the sheath was measured, and the degree of damage was calculated according to the following equation to estimate the disease-controlling effect of the compound. [formula]

Botrytis cinerea [1] = test: Test for Botrytis cinerea-controlling effect on cucumbers: disease preventing effect; format: in vivo; settings: cucumber; 50 ppm active ingredient, 7 ml per pot; 3 days after inoculation
Experimental: An aqueous dilution of the test compound in the form of a wettable powder preparation was applied to cotyledons of cucumbers, cultered in pots of 9 cm in diameter and the first leaf was nipped off when it developed, at a rate of 7 ml per pot. After one day, agar discs (diameter: 5 mm) with Botrytis cinerea were attached to the leaves for inoculation. Three days thereafter, the disease severity was observed, and the disease-controllingeffect was estimated.
(§1) Percentage of control was determined by the following procedure. The rate of diseased area on the tested leaf was measured and classified in one of the six infectious indexes (0, 1, 2, 3, 4, 5) according to the undermentioned criteria. The number of leaves corresponding to each infectious index (n0, n1, n2, n3, n4, n5) was determined, and calculation was effected according to the undermentioned equation.

Botrytis cinerea [2] = test: Test for Botrytis cinerea on cucumbers: systemic activity by the water culture method; format: in vivo; settings: cucumber, 5 ppm solution, 3 days, 3 days after inoculation
Experimental: The systemic activity of the test compound was tested by the water culture method in the following manner. The plants were pulled out from the pots carefully so as not to damage the roots, and the soil attached to the roots was well removed by water-washing. The plants were placed into flasks containing a 5 ppm solution of the test compound (50 ml) and allowed to stand for 3 days at a constant temperature under illumination. Agar discs with the mycelium were attached to the cotyledons for inoculation, and the degree of damage was examined three days thereafter.
as §1

Botrytis cinerea [3] = test: Test for Botrytis cinerea on cucumbers: effect of prevention of diseased spot-development; format: in vivo; settings: cucumber, 7 ml per pot, applied one day after inoculation
Experimental: The test for examining the effect of prevention of diseased spot-development was carried out in the following manner. An agar disc with the mycelium was attached to the first leaf for inoculation. After one day, the diameter of the diseased spot was measured. The solution of the test compound was applied to the plant at a rate of 7 ml per pot, and two days thereafter, the diameter of the diseased spot was again measured, and the effect for prevention of diseased spot-development was calculated according to the following equation: [formula]

[4] = system: Aspergillus niger ATCC 6275; test: Antimicrobial spectrum against industrial fungi, agar medium dilution method: Aspergillus niger; format: cell-based; settings: ATCC6275, A. niger, read-out: Minimal inhibitory concentration of active ingredient
Description: (§2) The effect for inhibition of hyphae growth was examined by the agar medium dilution method on Aspergillus niger ATCC 6275, Cladosporium herbarum IAM F 517 and Chaetomium globosum ATCC 6205 multiplying on industrial products and damaging them.

[5] = system: Cladosporium herbarum IAM F 517; test: Antimicrobial spectrum against industrial fungi, agar medium dilution method: Cladosporium herbarum; format: cell-based; settings: IAMF517, C. herbarum, read-out: Minimal inhibitory concentration of active ingredient
Description: as §2

[6] = system: Chaetomium globosum ATCC 6205; test: Antimicrobial spectrum against industrial fungi, agar medium dilution method: Chaetomium globosum; format: cell-based; settings: ATCC6205, C. globosum, read-out: Minimal inhibitory concentration of active ingredient
Description: as §2

SMILES: CS(=O)(=O)N1CC(=O)N(c2cc(Cl)cc(Cl)c2)C1=O [Compound 53]
Degree of damage (Alternaria bracissicola; 100 ppm active ingredient): 7% | Degree of damage (Alternaria bracissicola; 200 ppm active ingredient): 11%

SMILES: CCS(=O)(=O)N1CC(=O)N(c2cc(Cl)cc(Cl)c2)C1=O [Compound 54]
Degree of damage (Sclerotinia sclerotiorum): 12% | Degree of damage (Alternaria bracissicola; 100 ppm active ingredient): 5% | Degree of damage (Alternaria bracissicola; 200 ppm active ingredient): 2%

SMILES: CCCS(=O)(=O)N1CC(=O)N(c2cc(Cl)cc(Cl)c2)C1=O [Compound 55]
Degree of damage (Pellicularia sasakii): 25% | Disease-preventing value: Disease preventing effect (Botrytis cinerea [1]): 100% | Disease-preventing value: Systemic activity (Botrytis cinerea [2]): 88% | Effect for prevention of diseased spot-development (Botrytis cinerea [3]; 100 ppm): 88% | Degree of damage (Sclerotinia sclerotiorum): 0% | Degree of damage (Alternaria bracissicola; 100 ppm active ingredient): 0% | Degree of damage (Alternaria bracissicola; 200 ppm active ingredient): 0%

SMILES: CC(C)S(=O)(=O)N1CC(=O)N(c2cc(Cl)cc(Cl)c2)C1=O [Compound 56]
Degree of damage (Pellicularia sasakii): 19% | Disease-preventing value: Disease preventing effect (Botrytis cinerea [1]): 100% | Disease-preventing value: Systemic activity (Botrytis cinerea [2]): 92% | Effect for prevention of diseased spot-development (Botrytis cinerea [3]; 100 ppm): 78% | Degree of damage (Sclerotinia sclerotiorum): 0%

SMILES: CCCCS(=O)(=O)N1CC(=O)N(c2cc(Cl)cc(Cl)c2)C1=O [Compound 57]
Disease-preventing value: Disease preventing effect (Botrytis cinerea [1]): 98% | Disease-preventing value: Systemic activity (Botrytis cinerea [2]): 79% | Effect for prevention of diseased spot-development (Botrytis cinerea [3]; 100 ppm): 65% | Degree of damage (Sclerotinia sclerotiorum): 0% | Degree of damage (Alternaria bracissicola; 100 ppm active ingredient): 1% | Degree of damage (Alternaria bracissicola; 200 ppm active ingredient): 0%

SMILES: CC(C)CS(=O)(=O)N1CC(=O)N(c2cc(Cl)cc(Cl)c2)C1=O [Compound 58]
Disease-preventing value: Disease preventing effect (Botrytis cinerea [1]): 100% | Disease-preventing value: Systemic activity (Botrytis cinerea [2]): 63% | Effect for prevention of diseased spot-development (Botrytis cinerea [3]; 100 ppm): 73%

MIC [4]: 1000 µg/mL (≈ 2740 µM) | MIC [5]: 1000 µg/mL (≈ 2740 µM) | MIC [6]: 1000 µg/mL (≈ 2740 µM)
SMILES: CCC(C)S(=O)(=O)N1CC(=O)N(c2cc(Cl)cc(Cl)c2)C1=O (stereo not shown) [Compound 59]
Degree of damage (Pellicularia sasakii): 19%

MIC [4]: 1000 µg/mL (≈ 2640 µM) | MIC [5]: 2000 µg/mL (≈ 5270 µM) | MIC [6]: 1000 µg/mL (≈ 2640 µM)
SMILES: CCCCCS(=O)(=O)N1CC(=O)N(c2cc(Cl)cc(Cl)c2)C1=O [Compound 61]

SMILES: C=CCS(=O)(=O)N1CC(=O)N(c2cc(Cl)cc(Cl)c2)C1=O [Compound 63]
Degree of damage (Sclerotinia sclerotiorum): 9%

SMILES: CCCS(=O)(=O)N1CC(=O)N(c2cc(Br)cc(Br)c2)C1=O [Compound 64]
Degree of damage (Sclerotinia sclerotiorum): 0%

SMILES: CCCS(=O)(=O)N1C(=O)N(c2cc(Cl)cc(Cl)c2)C(=O)C1C (stereo not shown) [Compound 66]
Degree of damage (Pellicularia sasakii): 16% | Degree of damage (Sclerotinia sclerotiorum): 3%

SMILES: CCCS(=O)(=O)N1C(=O)N(c2cc(Cl)cc(Cl)c2)C(=O)C1(C)C [Compound 69]
Degree of damage (Alternaria bracissicola; 100 ppm active ingredient): 21% | Degree of damage (Alternaria bracissicola; 200 ppm active ingredient): 6%

SMILES: O=C1CN(S(=O)(=O)CCCCl)C(=O)N1c1cc(Cl)cc(Cl)c1 [Compound 70]
Degree of damage (Sclerotinia sclerotiorum): 0% | Degree of damage (Alternaria bracissicola; 100 ppm active ingredient): 2% | Degree of damage (Alternaria bracissicola; 200 ppm active ingredient): 1%

SMILES: CCCCNC(=O)n1c(NC(=O)OC)nc2ccccc21 [Methyl-1-(butylcarbamoyl)-2-benzimidazole carbamate, reference compound]
Disease-preventing value: Disease preventing effect (Botrytis cinerea [1]): 90% | Disease-preventing value: Systemic activity (Botrytis cinerea [2]): 91% | Effect for prevention of diseased spot-development (Botrytis cinerea [3]; 500 ppm): 87% | Degree of damage (Sclerotinia sclerotiorum): 32%

SMILES: CCC(=O)N1CC(=O)N(c2cc(Cl)cc(Cl)c2)C1=O [reference compound]
Disease-preventing value: Disease preventing effect (Botrytis cinerea [1]): 89% | Disease-preventing value: Systemic activity (Botrytis cinerea [2]): 0% | Effect for prevention of diseased spot-development (Botrytis cinerea [3]; 500 ppm): 21%

SMILES: O=C1CNC(=O)N1c1cc(Cl)cc(Cl)c1 [reference compound]
Disease-preventing value: Disease preventing effect (Botrytis cinerea [1]): 70% | Disease-preventing value: Systemic activity (Botrytis cinerea [2]): 0% | Effect for prevention of diseased spot-development (Botrytis cinerea [3]; 500 ppm): 13%
